Laboratory results reported in publication PMC12412324, “Design, synthesis, and evaluation of novel pinane-based thiazolidione derivatives with anti-glioblastoma activity” (Journal of Enzyme Inhibition and Medicinal Chemistry, 2025).
Several values for one entry are separate records, joined by “and”; a condition that tells them apart may be missing. Equal values may be shown once.

Legend:
[1] = test system: U251 cells; assay: Cell cycle distribution by flow cytometry; type: cell-based; details: U251, C5 2.5, 5, 10 μM, 48 h
Description: (§1) U251 (1 × 10^5 cells/well) in logarithmic growth phase were transferred into 6-well microplates and cultured for 12 h. […] Annexin V-FITC/PI staining kit (Yeasen, Shanghai, China) was used to detect cell apoptosis. The cell cycle distribution was analysed by staining with a cell cycle analysis kit. Intracellular ROS levels were also detected using a ROS assay kit (Yeasen, Shanghai, China). All assays were performed as per the manufacturer’s instructions, and the stained cells were analysed by flow cytometry (Beckman Coulter, Miami, FL) to quantify apoptosis rates, cell cycle distribution, and ROS levels as appropriate.

[2] = test system: U251 cells; assay: Mitochondrial membrane potential (JC-1); type: cell-based; details: U251, C5 2.5, 5, 10 μM, 24 h
Description: U251 cells were seeded in 6-well microplates at the density of 1.5 × 10^5 cells/well and cultured overnight. Fresh medium containing different doses of C5 (0, 2.5, 5, and 10 μM) was added, and the cells were cultured for 24 h. The cells were stained using the JC-1 kit (Sigma-Aldrich, USA) according to the manufacturer’s instructions and observed by fluorescence microscopy. The changes in the ratio of the red and green fluorescence intensities were calculated to evaluate MMP.

[3] = test system: LO2; assay: CCK-8 cytotoxicity, normal human cell line LO2; type: cell-based; details: L02, mean ± SD of three independent experiments
[4] = target: T1, CDK2 (Homo sapiens, UniProt P24941); assay: Cellular thermal shift assay (CETSA); type: binding; details: U251, C5 50 and 100 µM, 40–70 °C, compared to control group
T1 construct: endogenous in cells; host or cells: U251 cells (lysate)
Description: U251 cells in logarithmic growth were harvested and lysed with protease inhibitors and phosphorylase inhibitors, followed by ultrasonic disruption and ice extraction for 1 h. After that, the lysate was divided into three parts evenly and incubated with DMSO, 50 µM of C5, and 100 µM of C5 for 1 h at room temperature. Subsequently, samples were heated in the PCR machine for 10 min in indicated temperature gradients (40–70 °C), respectively. Finally, samples were centrifuged at 14,000 × g for 30 min at 4 °C to remove aggregates, and the resulting supernatant was analysed with western blotting.

[5] = test system: U251 cells; assay: Intracellular ROS by flow cytometry (DCFH-DA); type: cell-based; details: U251, 5 μM C5, DCFH-DA
Description: U251 (1 × 10^5 cells/well) in logarithmic growth phase were transferred into 6-well microplates and cultured for 12 h. Therefore, U251 cells were treated with C5 (0, 2.5, 5, and 10 μM) for 24 h. Annexin V-FITC/PI staining kit (Yeasen, Shanghai, China) was used to detect cell apoptosis. The cell cycle distribution was analysed by staining with a cell cycle analysis kit. Intracellular ROS levels were also detected using a ROS assay kit (Yeasen, Shanghai, China). All assays were performed as per the manufacturer’s instructions, and the stained cells were analysed by flow cytometry (Beckman Coulter, Miami, FL) to quantify apoptosis rates, cell cycle distribution, and ROS levels as appropriate.

[6] = test system: U251 cells; assay: Transwell invasion experiment (Matrigel); type: cell-based; details: U251, C5 2.5, 5, 10 µM, 24 h, dose-dependent
Description: Matrigel-coated transwell chambers (24-well; 8-μm pore size, Corning, New York, NY, USA) were used to evaluate the invasion capability of GBM cells. The U251 cells incubated with different doses of C5 (0, 2.5, 5, and 10 μM) for 24 h were seeded on Matrigel-coated transwell chambers at the density of 2 × 10^4/well in a serum-free medium. After culturing for 24 h, the cells that invaded through Matrigel to the lower surface of the membrane were fixed with […] and stained with 0.1% crystal violet. The cells were counted under an inverted microscope in at least 5 random fields per well.

[7] = test system: U251 cells; assay: Annexin V-FITC/PI apoptosis flow cytometry; type: cell-based; details: U251, C5 10 μM, 48 h
Description: as §1

[8] = test system: T98G; assay: CCK-8 cell viability assay, T98G; type: cell-based; details: Homo sapiens, T98G, 72 h, CCK-8, 72 h, mean ± SD of three independent experiments
Description: (§2) The U87MG cell line (catalogue iCell-h224) and U251MG cell line (catalogue iCell-h219) were purchased from iCell Bioscience Inc (Shanghai) cell bank. T98G cell line was obtained from Yining Zhang’s group. All cells were cultured in DMEM supplemented with 10% (v/v) FBS and penicillin-streptomycin in a humidified incubator at 37 °C under 5% CO2. The different compounds were dissolved in DMSO at the concentration of 10 mM and diluted in serum-free medium. The GBM cells were seeded into 96-well microplates at the density of 6000 cells/well and incubated for 24 h. Fresh media supplemented with different concentrations of the compounds were added, and the cells were cultured for 72 h. The CCK-8 reagent (TargetMol, C0005) was added to each well and the cells were incubated for 4 h at 37 °C. […] the absorbance was measured at […] using a microplate reader (Genios Tecan). An untreated control group was included and its viability was set as 100%. IC50 value of the two probes was calculated using GraphPad Prism 5.0.

[9] = target: T1, CDK2; assay: Drug affinity responsive target stability (DARTS) assay; type: binding; details: U251 lysate, C5 50 and 100 μM, pronase 30 min, versus DMSO
Description: U251 cells were plated in 10 cm dishes. After overnight, the cells were washed by precooled PBS, and lysed by NP-40 lysis buffer for 30 min. Next, lysates were centrifuged at 13000 rpm for 15 min at 4 °C, and protein concentration was determined using a BCA protein assay kit (Solarbio, PC0020). The supernatants were divided into four 50 μL aliquots and incubated with DMSO or compound C5 (50 and100μM) for 30 min at room temperature. Then, the 5 μL of Pronase (The method of preparing the stock solution is 1 μg of Pronase in 200 μg of lysate, the effect concentration which is diluted by ultrapure water to 200X/400X/600X), and the reaction was stopped by 5× loading buffer. Protein samples were boiled and analysed by using Western blot.

[10] = test system: U251; assay: CCK-8 cell viability assay, U251; type: cell-based; details: Homo sapiens, U-251, 72 h, CCK-8, 72 h, mean ± SD of three independent experiments
Description: as §2

[11] = test system: GBM cell lines (U87, T98G, and U251); assay: CCK-8 anti-proliferation, three GBM cell lines taken together; type: cell-based; details: read-out: IC50 values against all three GBM cell lines
Description: as §2

[12] = test system: apoptosis-related and autophagy-related proteins in U251 cells; assay: Western blotting of apoptosis-related and autophagy-related proteins; type: cell-based; details: immunoblot
Description: The protein content in the lysates was measured using a BCA protein assay kit, and 20 μg protein per sample was separated by SDS-PAGE and transferred to PVDF membranes (Merck Millipore, Burlington, MA, USA). After blocking with 5% skim milk in Tris buffered saline-Tween (TBS-T) at room temperature for 2h, the blots were incubated overnight with the following primary antibodies at 4 °C: mouse anti-GAPDH (ab8245, 1:10000), rabbit anti-Bax (ab32503, 1:5000), anti-Bcl-2 (ab32124, 1:1000), anti-caspase 3 (ab32351, 1:5000), anti-cleaved caspase 3 (ab32042, 1:500), anti-cleaved PARP-1 (ab32561, 1:1000), anti-LC3B (ab192890, 1:2000), anti-p62 (ab109012, 1:10000), anti-PARP-1 (ab32138, 1:10000). Following three washes with TBS-T, the membranes were incubated with corresponding horseradish peroxidase-conjugated secondary antibodies (1:10000) at room temperature for 90 min, and washed thrice with TBS-T. The bands were visualised using the Minichem@610 Chemiluminescence imager (SAGCEREATION, Beijing) on the chemiluminescence channel.

[13] = test system: U87; assay: CCK-8 cell viability assay, U87; type: cell-based; details: Homo sapiens, U-87 MG, 72 h, CCK-8, 72 h, mean ± SD of three independent experiments
Description: as §2

[14] = test system: U251 multicellular tumour spheroids; assay: 3D spheroid assay (MCTSs, calcein-AM/PI); type: cell-based; details: C5 24 h, dose-dependent
Description: Malignant glioblastoma tumour cells U251 were seeded in cell-repellent 96-well U-bottom plates (Sbio™), and cultured for 72 h to allow spheroid formation. […] Spheroids were stained with PI and Calcein-AM, and observed under a fluorescence microscope.

[15] = U251, C5 treatment 24 h, concentration-dependent

CN1C(=O)C(=Cc2ccc(O)cc2)SC1=NN=CC1=CCC2CC1C2(C)C (stereo not shown) [C5, 2-(((6,6-Dimethylbicyclo[3.1.1]hept-2-en-2-yl)methylene)hydrazineylidene)-5–(4-hydroxybenzylidene)-3-methylthiazolidin-4-one] was tested, and the cell cycle distribution [1] was “decrease in the G2/M population, with a concomitant increase in the S phase population”, the “mitochondrial membrane potential, JC-1 fluorescence” value [2] was “dose-dependent decrease in red fluorescence” and the IC50 [3] was 43.2 ± 0.21 µM. For the same compound, the “thermal stability of CDK2 (CETSA)” value [4] was “substantially increased”, the “intracellular ROS levels” value [5] was “significantly increased” and the “number of viable cells that invaded through the Matrigel” value [6] was “significantly decreased”. The apoptosis rate [7] was 48.56%, the IC50 [8] was 4.25 ± 0.38 µM and the “CDK2 stability to pronase digestion (DARTS)” value [9] was “enhanced stability”. The IC50 [10] was 3.12 ± 0.45 µM, the IC50 [11] was 3.12 to 4.25 µM and < 5 µM and the Bax expression ([12]; U251, C5 treatment 24 h) was “upregulation”. For the same compound, the Bcl-2 expression ([12]; U251, C5 treatment 24 h) was “dose-dependent downregulation”, the PARP cleavage [12, 15] was “enhanced” and the caspase-3 activation [12, 15] was “enhanced”. For the same compound, the LC3B-II expression ([12]; U251, C5 treatment) was “significantly enhanced”, the P62 expression ([12]; U251, C5 treatment) was “significantly enhanced” and the IC50 [13] was 3.98 ± 0.34 µM. The “viability of U251 cells in a 3D model” value [14] was “decreased”.
